Test results taken from publication PMC5458179, “Oxidative DNA double strand breaks and autophagy in the antitumor effect of sterically hindered platinum(II) complexes in NSCLCs” (Oncotarget, 2017).

Assays:
[1] = system: NCI-H1299 cells; test: Cell-cycle analysis (PI staining, flow cytometry); type: cell-based, human; conditions: NCI-H1299, 10 μM
Protocol: (§1) With the untreated A549 and NCI-H1299 cells, the percentage of cells in the G1 phase was at 21.29%, 18.96% with 15.28%, 22.94% in the G2/M phase, respectively.
(§2) Cell cycle was analyzed by flow cytometry as described previously. Data were analyzed with FlowJo software (TreeStar, Inc.).

[2] = system: A549 cells; test: Cell-cycle analysis (PI staining, flow cytometry); type: cell-based, human; conditions: A549, 10 μM
Protocol: as §1, §2

[3] = system: L02 normal liver cell line; test: MTT cytotoxicity assay; type: cell-based; conditions: 48 h drug exposure
Protocol: (§3) The results reveal that the steric hindrance plays a significant role in the cytotoxicity of complex 3.
(§4) Human cancer cell lines HepG2, SGC-7901, HCT-116, A549, NCI-H1299 and MCF-7 as well as normal liver cell line L02 were purchased from the Cell Bank of Shanghai Institute of Cell Biology. Among them, MCF-7, HepG2 cells were cultured at 37 °C in 5% CO2 with DMEM supplemented with 10% fetal bovine serum (FBS) (Hyclone, Lifescience, USA) and 1% penicillin/streptomycin (Beyotime, Nantong, China), while HCT-116, SGC-7901, A549, NCI-H1299 and L02 cells were cultured at 37 °C in 5% CO2 with RPMI-1640 supplemented with 10% FBS and 1% penicillin/streptomycin. Cells were passed every 2 days and restarted from frozen stocks upon reaching pass number 20.
(§5) In vitro cytotoxicity of the platinum compounds against human hepatocellular carcinoma (HepG-2), gastric carcinoma (SGC-7901), non-small-cell lung cancer (A549), and colorectal cancer (HCT-116) cell lines were measured by the MTT assays. Briefly, the cells were seeded in 96-well cultured plates at a density of 5000 cells/well. After overnight incubation (16 h), the cells were treated with the platinum complexes. After 48 h of incubation, 10 μL of a freshly diluted 3-(4,5-dimethyl-2-thiazolyl)-2,5-diphenyl-2H-tetrazolium bromide (MTT) solution (5 mg/mL) were added to each well and the plates were incubated at 37 °C in a humidified 5% CO2 atmosphere for 4 h. At the end of the incubation period the medium was removed and the formazan product was dissolved in 150 μL of DMSO. The cell viability was evaluated by measurement of the absorbance at 490 nm, using an Absorbance Reader (BioRad). IC50 values (compound concentration that produces 50% of cell growth inhibition) were calculated from curves constructed by plotting cell survival inhibitory rate (%) versus drug concentration logarithm. All experiments were repeated in three times. The reading values were converted to the percentage of control (% cell survival). Cytotoxic effects were expressed as IC50 values.

[4] = Blood stability test with rat plasma (ICP-MS); type: in vitro ADME; conditions: 37°C, 10 μM (method: 50 μM)
Protocol: Thus, we investigated the stability of complex 3 in rat plasma via ICP-MS measurement. Fresh rat plasma was added with a DMSO solution of complex 3 (10 μM). After incubation for 0, 2, 4 and 8 h at 37°C, the Pt content in rat plasma was measured by ICP-MS. […] This interaction contributes to the promising stability of complex 3 in rat plasma.
At varying time points (0, 2, 4 and 8 h) at 37°C, a 300 μL aliquot was removed from the incubating blood. The ICP-MS measurement was served to confirm the blood stability of complex 3 in rat plasma.

[5] = system: SGC-7901; test: MTT cytotoxicity assay; type: cell-based, human; conditions: 48 h drug exposure
Protocol: as §3, §4, §5

[6] = system: HCT-116; test: MTT cytotoxicity assay; type: cell-based, human; conditions: 48 h drug exposure
Protocol: as §3, §4, §5

[7] = system: HepG2; test: MTT cytotoxicity assay; type: cell-based, human; conditions: 48 h drug exposure
Protocol: as §3, §4, §5

[8] = system: A549 xenograft tumors; conditions: for tumor growth inhibition rate: 5 mg/kg i.v., complex 3 once every three days, oxaliplatin twice a week, tumor weight at end
Protocol: To evaluate the anti-tumor effect of complex 3 in vivo, an xenografts nude mice model of A549 cancer cells was performed. […] At the end of treatments, the tumor weight was measured to detect the antitumor activity of these measured groups. […] Because platinum-based drugs are well known for their toxic effects on the mean bodyweights of treated animals, the toxicity of complex 3 in the body weights of mice was assayed. […] The mice treated with the tested complex 3 were selected for histological analyses.
Thirty-five nude mice (BALB/c) with body weight range from 18–22 g, were supplied by Shanghai Laboratory Animal Center, China Academy of Sciences. Experimental protocols were in accordance with National Institutes of Health regulations and approved by the Institutional Animal Care and Use Committee. All animals were randomly divided into 5 groups. The A549 single-cell suspension in PBS (1×10^7 cells per mouse) was injected subcutaneously into the right oxter of nude mice. […] The control group was administered glucose. The tumor growth was monitored by measuring the perpendicular diameter of the tumor using calipers every two days and calculated according to the formula:
Tumor volume (mm^3) = 0.5 × length × width^2
Growth curves were plotted using the average tumor volume within each experimental group at the set time points. The whole group of mice was sacrificed after the last treatment, then tumor weight was evaluated as the antitumor activity of the corresponding groups, and the kidneys, livers and tumors were excised for immunohistochemistry analysis. The body weight and physical state of the mice were measured simultaneously as an indicator of systemic toxicity.

[9] = system: Herring sperm DNA; test: DNA platination by EtBr fluorescence; conditions: 0.01 mg/mL DNA, pH 7.4, 37°C, 24 h
Protocol: The better cytotoxicity of complex 3 owing to the DNA platination could be detected in the presence of EtBr as a probe via fluorescent measurements, because their DNA platination could prevent the formation of EtBr-DNA complex, resulting in its stoichiometric loss of fluorescence.
Herring sperm DNA was dissolved in 10 mM phosphate buffer (pH 7.4) containing 10 mM NaClO4. The DNA concentration was determined by UV-vis spectra at 260 nm with an extinction coefficient of 6600 M^−1. The mixture of DNA with platinum complexes were incubated at 37°C in the dark. The fluorescence was measured in 0.4 M NaCl to avoid the second fixation site of EtBr to DNA. EtBr (0.04 mg/mL) was added to the 0.01 mg/mL DNA solution before the fluorescence measurement. Fluorescence spectra were recorded under following conditions: scan speed 2000 nm min^−1; excitation slit width was 5 nm and emission slit width was 10 nm. The excitation and emission wavelength was 530 nm and 592 nm, respectively.

[10] = system: pET28a plasmid DNA; test: Agarose gel electrophoresis of plasmid DNA; conditions: 0, 20, 80, 320, 640 μM
Protocol: The tested complexes were incubated with DNA at different concentrations.
Appropriate dilutions of tested complexes were made, and the required volumes of solutions were added to achieve a set of concentrations in the range of 0–100 mm; pET22b DNA (5 mL, 0.20 mg) was added to each tube, and the mixtures of platinum complexes and pET22b plasmid DNA were then incubated at 37°C for 6 or 24 h. Afterward, the agarose gel (made up to 1% w/v) containing ethidium bromide was prepared with TA buffer (50 mm Tris-acetate, pH 7.5). The mixtures with loading buffer (1 mL) underwent electrophores is in agarose gel in TA buffer at 100 V for 60 min. Bands were imaged using a Molecular Imager (Bio-Rad, USA) under UV light.

| Compound | cell cycle phase blocked [1] | percentage of cells in the G1 phase ([1]; 72 h, untreated 18.96%) [%] | cell cycle phase blocked [2] | IC50 [3] [µM] | t1/2 in rat plasma (stability) [4] | IC50 [5] [µM] | IC50 [6] [µM] | IC50 [7] [µM] | tumor volumes ([8]; 5 mg/kg i.v. once every three days) | tumor growth inhibition rate [8] [%] | expressions of LC3 in tumor tissues ([8]; immunoblotting) | bodyweights of mice during treatment ([8]; mouse, in vivo) | DNA platination, change of EtBr fluorescent intensity [9] | gel electrophoretic mobility of plasmid DNA [10] |
| --- | --- | --- | --- | --- | --- | --- | --- | --- | --- | --- | --- | --- | --- | --- |
| CC(C)C[NH+]1[C@@H]2CCCC[C@H]2[NH+](CC(C)C)[Pt-2]12[O]C(=O)CC(=O)[O]2 (stereo partly drawn) [Complex 3] | G2/M phases of A549 and NCI-H1299 were blocked strikingly | 60.29 | G2/M phases of A549 and NCI-H1299 were blocked strikingly | 82.6 ± 3.95 | 27.6 h | 38.6 ± 2.49 | 38.6 ± 2.67 | 52.9 ± 4.37 | significantly decreased | 67.96 | increased expressions of LC3 in tumor tissues | increase of bodyweights | more fluorescent intensity change compared to complex 3a | a strong unwinding of the supercoiled DNA |
| O=C1[O][Pt]2([NH][C@@H]3CCCC[C@H]3[NH]2)[O]C1=O [Oxaliplatin, oxaliplatin, reference compound] | S phases were blocked |  | S phases were blocked | 42.9 ± 3.54 | ~ 13.1 h | 24.2 ± 0.35 | 19.1 ± 1.89 | 16.6 ± 0.56 |  | 34.48 |  |  | a little loss of fluorescent intensity | a decrease in the rate of migration for closed circular DNA (Form I) |
